The source of these data is publication PMC4579270, “Identification and Characterization of an Irreversible Inhibitor of CDK2” (Chemistry & Biology, 2015).

Like-named read-outs stand apart in the source and are kept apart here. Where only a bound is given, the exact number is not on record here.

What is called remaining activity is what remains of the control signal, in per cent.

Common to all, as to assay: Dundee kinase screen re-test (standard format and 4 hour pre-incubation)
What all share (assay type): biochemical

The target of one assay is Aurora B (Homo sapiens, UniProt Q96GD4). The protocol: (§1) Prior to determining its cellular activity, we carried out a screen to assess its selectivity against a panel of 131 protein kinases under conditions that would not distinguish between a reversible or irreversible mode of action. […] These 13 kinases and 29 additional kinases, selected for their known sensitivity to other inhibitors within the purine series, were then tested in a modified screening format in which the assay was repeated following a 4-hr pre-incubation (Table S3B). […] However, conformational flexibility around the active site may promote such an interaction with a residue from another part of the structure ([Martin et al., 2012]).
(§2) Table S3, Related to Figure 4. NCL-0006300 protein kinase selectivity. (A) NU6300 was tested at a single concentration of 1µM against 131 protein kinases present in a Dundee protein kinase screen (Bain et al., 2007). Values given are % activity remaining and are the average of duplicate measurements: 0-25% (red), 26-50% (yellow), 51-80% (black) and above 81% (green). The kinase domain sequences (as defined by UniProt) of […]
(§3) have a lysine residue at a position close to CDK2 Lys88 or Lys89. However, in the structure of tyrosine-protein kinase BTK (PDB ID: 3GEN) the residue equivalent to CDK2 Asp86 is Cys481 and therefore there is the potential for a covalent adduct to be formed through this side chain. Ephrin type-B receptor 3 (UniProt entry P54753) also encodes a cysteine residue (Cys717) that by sequence alignment would be predicted to be close to the CDK2 lysine pair. (B) Selected kinases were re-tested in the Dundee kinase screen against NU6300 at a single concentration of 0.5 µM both in the standard assay format and following a 4 hour pre-incubation in the presence of NU6300. Kinases which have very low activity after the 4 hour incubation so that results might not be wholly reliable are boxed in salmon. Kinases where the activity after a 4 hour pre-incubation is < 50% that in the standard assay format are highlighted in red.

A further assay deals with Lck (Homo sapiens, UniProt P06239). The method, then:
as §1, §2, §3

The target in the next assay is T1, MST2 (Homo sapiens, UniProt Q13188).
T1 sequence (Q13188 1-491): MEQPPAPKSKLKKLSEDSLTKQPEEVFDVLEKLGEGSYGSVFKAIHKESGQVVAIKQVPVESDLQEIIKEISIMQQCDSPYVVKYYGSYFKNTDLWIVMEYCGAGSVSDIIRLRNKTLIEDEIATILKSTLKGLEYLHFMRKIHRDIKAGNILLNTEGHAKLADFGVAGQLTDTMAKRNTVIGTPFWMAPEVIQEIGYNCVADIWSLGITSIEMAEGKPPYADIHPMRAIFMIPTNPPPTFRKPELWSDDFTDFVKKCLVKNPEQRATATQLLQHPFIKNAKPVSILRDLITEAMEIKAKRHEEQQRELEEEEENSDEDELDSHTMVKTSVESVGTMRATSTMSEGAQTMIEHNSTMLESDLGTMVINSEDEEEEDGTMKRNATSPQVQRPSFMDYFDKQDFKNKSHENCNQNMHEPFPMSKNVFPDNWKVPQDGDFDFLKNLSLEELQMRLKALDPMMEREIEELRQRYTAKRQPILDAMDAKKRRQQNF
The conditions noted are these: for remaining activity at 0.5 µM: MST2, 0.5µM. The protocol: as §1, §2, §3

A further assay deals with T2, NUAK1 (Homo sapiens, UniProt O60285).
T2 sequence (O60285 1-661): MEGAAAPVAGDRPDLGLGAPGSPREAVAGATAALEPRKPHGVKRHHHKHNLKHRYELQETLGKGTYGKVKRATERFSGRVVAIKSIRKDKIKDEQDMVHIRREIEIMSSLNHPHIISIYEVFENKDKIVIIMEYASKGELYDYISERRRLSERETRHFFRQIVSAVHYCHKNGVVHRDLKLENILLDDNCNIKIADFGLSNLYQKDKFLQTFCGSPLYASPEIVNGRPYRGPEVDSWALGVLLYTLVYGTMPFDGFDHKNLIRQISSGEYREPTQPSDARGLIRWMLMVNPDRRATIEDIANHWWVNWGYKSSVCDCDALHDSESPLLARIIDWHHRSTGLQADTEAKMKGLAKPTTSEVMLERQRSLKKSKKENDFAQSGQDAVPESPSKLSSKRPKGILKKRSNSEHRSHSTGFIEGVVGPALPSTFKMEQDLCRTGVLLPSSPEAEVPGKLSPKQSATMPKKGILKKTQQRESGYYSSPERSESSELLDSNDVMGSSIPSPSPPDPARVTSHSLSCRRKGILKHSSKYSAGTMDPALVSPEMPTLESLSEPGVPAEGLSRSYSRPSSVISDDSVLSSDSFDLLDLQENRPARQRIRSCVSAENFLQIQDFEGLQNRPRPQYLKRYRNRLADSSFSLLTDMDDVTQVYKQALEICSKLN
The conditions noted are these: NUAK1, 0.5µM. The method, then: as §1, §2, §3

In a further assay the target is PAK5 (Homo sapiens, UniProt Q9P286). The conditions noted are these: PAK5, 0.5µM. The protocol:
as §1, §2, §3

Another assay concerns the target PRK2 (Homo sapiens, UniProt Q16513). The conditions noted are these: PRK2, 0.5µM. The method, then:
as §1, §2, §3

[1] abbreviates: 4hr RT preincubation, read-out: %Remaining activity at 0.5µM NU6300 - 4hr RT preincubation.
Setting [2] is: usual format, read-out: %Remaining activity at 0.5µM NU6300 - Usual assay format.

Aurora B, sequence (Q96GD4 whole entry): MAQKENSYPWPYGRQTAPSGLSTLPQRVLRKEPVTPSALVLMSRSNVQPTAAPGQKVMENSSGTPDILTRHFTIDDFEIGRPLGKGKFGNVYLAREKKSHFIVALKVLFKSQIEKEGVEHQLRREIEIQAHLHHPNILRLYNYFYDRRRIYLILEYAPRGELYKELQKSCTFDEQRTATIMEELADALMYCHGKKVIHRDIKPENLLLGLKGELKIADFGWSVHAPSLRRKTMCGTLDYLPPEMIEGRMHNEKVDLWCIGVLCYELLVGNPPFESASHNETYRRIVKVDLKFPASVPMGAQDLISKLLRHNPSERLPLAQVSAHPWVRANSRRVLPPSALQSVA
PRK2, sequence (Q16513 whole entry): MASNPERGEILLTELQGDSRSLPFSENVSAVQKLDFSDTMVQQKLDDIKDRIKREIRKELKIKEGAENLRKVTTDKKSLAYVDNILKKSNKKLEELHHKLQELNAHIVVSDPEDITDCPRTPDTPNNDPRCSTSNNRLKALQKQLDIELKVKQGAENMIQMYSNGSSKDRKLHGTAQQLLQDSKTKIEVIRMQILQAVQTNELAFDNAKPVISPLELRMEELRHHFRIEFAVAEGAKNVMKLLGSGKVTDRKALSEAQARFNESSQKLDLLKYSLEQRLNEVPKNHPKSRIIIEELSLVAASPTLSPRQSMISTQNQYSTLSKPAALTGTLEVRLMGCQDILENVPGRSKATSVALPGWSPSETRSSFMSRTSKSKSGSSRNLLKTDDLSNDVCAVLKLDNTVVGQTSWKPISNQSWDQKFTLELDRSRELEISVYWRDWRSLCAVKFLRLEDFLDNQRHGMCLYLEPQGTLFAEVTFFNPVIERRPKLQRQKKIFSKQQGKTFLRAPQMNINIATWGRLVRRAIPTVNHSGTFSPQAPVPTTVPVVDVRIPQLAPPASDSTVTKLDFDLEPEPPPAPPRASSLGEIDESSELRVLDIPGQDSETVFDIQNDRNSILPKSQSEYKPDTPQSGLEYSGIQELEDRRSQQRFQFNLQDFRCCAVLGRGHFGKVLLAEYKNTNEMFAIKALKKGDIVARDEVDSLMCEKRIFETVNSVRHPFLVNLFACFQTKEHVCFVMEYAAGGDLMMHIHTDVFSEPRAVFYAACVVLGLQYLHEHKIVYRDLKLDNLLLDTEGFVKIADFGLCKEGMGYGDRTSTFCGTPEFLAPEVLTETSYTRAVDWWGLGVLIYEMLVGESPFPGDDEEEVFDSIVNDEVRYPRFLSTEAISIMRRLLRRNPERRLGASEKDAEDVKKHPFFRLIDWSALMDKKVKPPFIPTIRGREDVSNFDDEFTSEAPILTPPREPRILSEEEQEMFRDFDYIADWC
PAK5, sequence (Q9P286 whole entry): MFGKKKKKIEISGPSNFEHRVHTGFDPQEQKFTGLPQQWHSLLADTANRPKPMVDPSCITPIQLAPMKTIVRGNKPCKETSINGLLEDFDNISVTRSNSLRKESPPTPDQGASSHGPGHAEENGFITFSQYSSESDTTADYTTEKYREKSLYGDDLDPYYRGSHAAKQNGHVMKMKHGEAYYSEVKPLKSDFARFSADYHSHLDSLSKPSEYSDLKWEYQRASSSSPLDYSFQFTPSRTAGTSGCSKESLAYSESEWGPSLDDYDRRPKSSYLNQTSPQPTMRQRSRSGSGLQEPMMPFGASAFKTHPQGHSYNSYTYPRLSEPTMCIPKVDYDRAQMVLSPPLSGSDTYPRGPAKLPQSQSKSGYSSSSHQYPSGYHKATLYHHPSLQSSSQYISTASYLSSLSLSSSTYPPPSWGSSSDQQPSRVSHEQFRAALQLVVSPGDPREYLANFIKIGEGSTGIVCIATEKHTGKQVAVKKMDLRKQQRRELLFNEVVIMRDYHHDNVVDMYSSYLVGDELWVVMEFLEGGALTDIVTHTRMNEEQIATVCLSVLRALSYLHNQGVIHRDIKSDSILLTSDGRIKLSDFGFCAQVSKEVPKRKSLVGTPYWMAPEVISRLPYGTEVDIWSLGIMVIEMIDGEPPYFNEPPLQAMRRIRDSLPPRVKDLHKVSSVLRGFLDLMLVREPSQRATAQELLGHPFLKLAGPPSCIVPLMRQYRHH
Lck, sequence (P06239 whole entry): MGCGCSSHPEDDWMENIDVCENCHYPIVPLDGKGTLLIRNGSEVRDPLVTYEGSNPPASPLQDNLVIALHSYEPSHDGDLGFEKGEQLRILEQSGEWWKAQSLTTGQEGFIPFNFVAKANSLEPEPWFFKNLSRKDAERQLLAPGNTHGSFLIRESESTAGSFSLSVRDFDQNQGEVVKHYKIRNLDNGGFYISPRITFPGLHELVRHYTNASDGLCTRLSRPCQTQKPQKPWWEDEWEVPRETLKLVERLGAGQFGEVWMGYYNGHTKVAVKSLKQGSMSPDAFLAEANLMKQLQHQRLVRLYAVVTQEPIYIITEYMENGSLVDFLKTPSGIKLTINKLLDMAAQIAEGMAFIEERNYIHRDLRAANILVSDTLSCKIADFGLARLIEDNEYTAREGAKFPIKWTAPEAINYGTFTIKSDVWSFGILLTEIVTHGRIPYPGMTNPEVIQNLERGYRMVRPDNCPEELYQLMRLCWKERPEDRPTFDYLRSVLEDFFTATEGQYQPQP

On to `C=CS(=O)(=O)c1ccc(Nc2nc(OCC3CCCCC3)c3nc[nH]c3n2)cc1` [NU6300, 6-(cyclohexylmethoxy)-N-(4-(vinylsulfonyl)phenyl)-9H-purin-2-amine], for which the remaining activity at 0.5 µM at Aurora B (setting [1]) came to 87%; at Aurora B (setting [2]), 43%; at Lck (setting [1]) it was 60%; at Lck (setting [2]), 67%; on MST2 (setting [1]) it was 11%; on MST2 (setting [2]), 38%. Moreover, the remaining activity at 0.5 µM on NUAK1 (setting [1]) amounted to 18%; on NUAK1 (setting [2]) it was 12%; on PAK5 (setting [1]), 53%; at PAK5 (setting [2]) it was 76%; at PRK2 (setting [1]), 84%; at PRK2 (setting [2]), 65%. The “additional loss of activity after pre-incubation” value on MST2 (Mst2, 4-hr pre-incubation vs usual format, 0.5 µM) is on record as over 50%.
